Assay results from patent publication US9624217B2, “Dihydropyrrolopyridine inhibitors of ROR-gamma” (Vitae Pharmaceuticals, Inc., priority 2014, dated 2017).

Each molecule was assayed against recombinant RORγ Ligand Binding Domain (LBD) (Homo sapiens (Human), UniProt P51449) (assay: Radio-Ligand RORγ Binding Assay (Assay 1)). Settings: SPA competition with 25-hydroxy [26,27-3H]-cholesterol, cell-free; read-out: RORγ Binding Ki Range.
Procedure: Radio-Ligand RORγ Binding Assay (Assay 1)
Compounds of the present invention were tested for ability to bind to RORγ in a cell-free competition assay with commercially available radio-ligand (RL), 25-hydroxy [26,27-^3H]-cholesterol (PerkinElmer, Cat. #NET674250UC), for a ligand binding site on a recombinant RORγ Ligand Binding Domain (LBD) protein expressed as a 6×His-Glutathione-S-Transferase (GST) fusion. […] The plate was shaken at 700 rpm for 20 min and incubated for 10 min at rt, after which 40 μL of poly-Lys YSi SPA beads (PerkinElmer, Cat. #RPNQ0010) were added to achieve 50 μg of the beads per well. The plate was incubated on an orbital shaker for 20 min and then for 10 min without agitation at rt. SPA signal for tritium beta radiation was registered on PerkinElmer Microbeta plate reader. […] The percent inhibition vs. concentration data were fit into a four-parameter model, and IC50 values were calculated from the fit as the concentrations corresponding to the inflection points on the dose-response curves.

recombinant RORγ Ligand Binding Domain (LBD), sequence (P51449 269-508): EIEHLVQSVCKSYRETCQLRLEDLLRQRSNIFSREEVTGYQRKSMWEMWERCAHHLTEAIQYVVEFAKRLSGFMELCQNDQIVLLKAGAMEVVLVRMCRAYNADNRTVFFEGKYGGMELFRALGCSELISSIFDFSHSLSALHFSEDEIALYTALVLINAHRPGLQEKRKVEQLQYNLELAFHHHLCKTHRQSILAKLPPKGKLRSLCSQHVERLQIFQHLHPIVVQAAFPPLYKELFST

Ki [nM]	SMILES
> 1000	CC(C)[C@H]1c2ncc(C(=O)NCC3CCN(C(=O)OC(C)(C)C)C3)cc2CN1Cc1ccc(C(F)(F)F)cc1 (stereo partly drawn) [Compound 74]
> 1000	CC(C)[C@H]1c2ncc(C(=O)NC3(c4cnccn4)CC3)cc2CN1Cc1ccc(C(F)(F)F)cc1 [Compound 120]
> 1000	CC(C)[C@H]1c2ncc(C(=O)NCc3ccccc3CN3CCN(C)CC3)cc2CN1Cc1ccc(C(F)(F)F)cc1 [Compound 81]
> 1000	CC(C)[C@H]1c2ncc(C(=O)NCC3(O)CCC4(CC3)OCCO4)cc2CN1Cc1ccc(C(F)(F)F)cc1 [Compound 118]
< 100	CCS(=O)(=O)c1ccc(CNC(=O)c2cnc3c(c2)CN(Cc2ccc(C(F)(F)F)cc2)[C@H]3C(C)C)nn1 [Compound 159]
> 1000	CC(C)[C@H]1c2ncc(C(=O)NCC3(CC(=O)O)CCCCC3)cc2CN1Cc1ccc(C(F)(F)F)cc1 [Compound 145]
> 1000	COC(=O)c1ccc(CNC(=O)c2cnc3c(c2)CN(Cc2ccc(C(F)(F)F)cc2)[C@H]3C(C)C)nc1 [Compound 150]
> 1000	CC(O)C(=O)N1CCC(CNC(=O)c2cnc3c(c2)CN(Cc2ccc(C(F)(F)F)cc2)[C@H]3C(C)C)CC1 (stereo partly drawn) [Compound 112]
> 1000	CC(C)[C@H]1c2ncc(C(=O)NC[C@H]3CC[C@H](C(=O)O)CC3)cc2CN1Cc1ccc(C(F)(F)F)cc1 [Compound 148]
> 1000	CC(C)[C@@H]1c2ncc(C(=O)NCc3ccc(S(C)(=O)=O)cc3)cc2CN1Cc1ccc(C#N)cc1 [Compound 19]
> 1000	CC(C)[C@H]1c2ncc(C(=O)NCc3nnc4n3CCC4)cc2CN1Cc1ccc(C(F)(F)F)cc1 [Compound 94]
100 to 1000	COC(=O)c1ccc(CNC(=O)c2cnc3c(c2)CN(Cc2ccc(C(F)(F)F)cc2)[C@H]3C(C)C)cc1 [Compound 65, Methyl (S)-4-((7-isopropyl-6-(4-(trifluoromethyl)benzyl)-6,7-dihydro-5H-pyrrolo[3,4-b]pyridine-3-carboxamido)methyl)benzoate]
> 1000	CC(C)[C@H]1c2ncc(C(=O)NCC(c3ccncc3)N(C)C)cc2CN1Cc1ccc(C(F)(F)F)cc1 (stereo partly drawn) [Compound 92]
> 1000	CC(C)[C@H]1c2ncc(C(=O)NCCN3CCN(C)CC3)cc2CN1Cc1ccc(C(F)(F)F)cc1 [Compound 99]
100 to 1000	CC(C)[C@H]1c2ncc(C(=O)NC(CO)c3ccc(Br)cc3)cc2CN1Cc1ccc(C(F)(F)F)cc1 (stereo partly drawn) [Compound 123]
> 1000	CC(C)[C@H]1c2ncc(C(=O)NCCc3ccccn3)cc2CN1Cc1ccc(C(F)(F)F)cc1 [Compound 97]
> 1000	CC(C)[C@H]1c2ncc(C(=O)N[C@H](C)c3ccc(Br)cc3)cc2CN1Cc1ccc(C(F)(F)F)cc1 [Compound 119]
> 1000	CC(C)[C@H]1c2ncc(C(=O)NCC3(c4ccc(Cl)cc4)CC3)cc2CN1Cc1ccc(C(F)(F)F)cc1 [Compound 80]
100 to 1000	CC(C)[C@H]1c2ncc(C(=O)NCc3ccncc3)cc2CN1Cc1ccc(C(F)(F)F)cc1 [Compound 115]
> 1000	CC(C)[C@H]1c2ncc(C(=O)NCc3cn4cccnc4n3)cc2CN1Cc1ccc(C(F)(F)F)cc1 [Compound 69]

Ki [nM]	SMILES
> 1000	CC(C)[C@H]1c2ncc(C(=O)NCC(F)(F)F)cc2CN1Cc1ccc(C(F)(F)F)cc1 [Compound 117]
> 1000	CC(C)[C@H]1c2ncc(C(=O)NCC3COCCO3)cc2CN1Cc1ccc(C(F)(F)F)cc1 (stereo partly drawn) [Compound 85]
100 to 1000	CC(C)[C@H]1c2ncc(C(=O)NCc3ccnnc3)cc2CN1Cc1ccc(C(F)(F)F)cc1 [Compound 83]
> 1000	CC(C)[C@H]1c2ncc(C(=O)NCC3CCS(=O)(=O)CC3)cc2CN1Cc1ccc(C(F)(F)F)cc1 [Compound 61]
100 to 1000	CCS(=O)(=O)N1CC(CCNC(=O)c2cnc3c(c2)CN(Cc2ccc(C(F)(F)F)cc2)[C@H]3C(C)C)C1 [Compound 102]
> 1000	CC(C)[C@H]1c2ncc(C(=O)NCCC3CN(S(C)(=O)=O)C3)cc2CN1Cc1ccc(C(F)(F)F)cc1 [Compound 152]
> 1000	CC(C)[C@H]1c2ncc(C(=O)NCC3CN(S(C)(=O)=O)C3)cc2CN1Cc1ccc(C(F)(F)F)cc1 [Compound 153]
100 to 1000	COC(=O)N1CCC(CNC(=O)c2cnc3c(c2)CN(Cc2ccc(C(F)(F)F)cc2)[C@H]3C(C)C)C1 (stereo partly drawn) [Compound 107]
< 100	CCS(=O)(=O)c1ccc(CNC(=O)c2cnc3c(c2)C(=O)N(C[C@H]2CC[C@H](C(F)(F)F)CC2)[C@H]3C(C)C)nc1 [Compound 47]
100 to 1000	CC(C)[C@H]1c2ncc(C(=O)NCC3CCN(C(=O)CO)CC3)cc2CN1Cc1ccc(C(F)(F)F)cc1 [Compound 113]
< 100	CCS(=O)(=O)c1ccc(CNC(=O)c2cnc3c(c2)CN(C[C@H]2CC[C@H](C(=O)OC)CC2)[C@H]3C(C)C)cc1 [Compound 44]
100 to 1000	CC(C)[C@H]1c2ncc(C(=O)NCc3ccccn3)cc2CN1Cc1ccc(C(F)(F)F)cc1 [Compound 78]
> 1000	CC(C)[C@H]1c2ncc(C(=O)NCCCn3ccnc3)cc2CN1Cc1ccc(C(F)(F)F)cc1 [Compound 96]
100 to 1000	CC(C)[C@H]1c2ncc(C(=O)NCc3ccc(S(C)(=O)=O)cc3)cc2CN1Cc1ccc(C(F)(F)F)cn1 [Compound 36]
> 1000	CC(C)[C@H]1c2ncc(C(=O)NC(CC(=O)O)c3ccc(Br)cc3)cc2CN1Cc1ccc(C(F)(F)F)cc1 (stereo partly drawn) [Compound 140]
> 1000	CC(=O)O[C@@H]1CN(C(C)=O)CC[C@H]1CNC(=O)c1cnc2c(c1)CN(Cc1ccc(C(F)(F)F)cc1)[C@H]2C(C)C [Compound 157]
> 1000	CCS(=O)(=O)CCNC(=O)c1cnc2c(c1)CN(Cc1ccc(C(F)(F)F)cc1)[C@H]2C(C)C [Compound 86]
100 to 1000	CC(C)[C@H]1c2ncc(C(=O)N[C@@H](CCO)c3ccc(Cl)cc3)cc2CN1Cc1ccc(C(F)(F)F)cc1 [Compound 71]
> 1000	CC(=O)N1CCC(CNC(=O)c2cnc3c(c2)CN(Cc2ccc(C(F)(F)F)cc2)[C@H]3C(C)C)CC1 [Compound 114]
> 1000	CC(C)[C@H]1c2ncc(C(=O)NCCc3ccnc(O)c3)cc2CN1Cc1ccc(C(F)(F)F)cc1 [Compound 101]

Ki [nM]	SMILES
> 1000	CC(C)[C@H]1c2ncc(C(=O)NC3(CO)Cc4ccccc4C3)cc2CN1Cc1ccc(C(F)(F)F)cc1 [Compound 87]
> 1000	CC(C)[C@@H]1c2ncc(C(=O)NCc3ccc(S(C)(=O)=O)cc3)cc2CN1Cc1ccc(Cl)cc1 [Compound 18]
> 1000	COC(=O)N1CC(CNC(=O)c2cnc3c(c2)CN(Cc2ccc(C(F)(F)F)cc2)[C@H]3C(C)C)C1 [Compound 105]
> 1000	CC(C)[C@H]1c2ncc(C(=O)NC(Cc3cc(=O)[nH]c4ccccc34)C(=O)O)cc2CN1Cc1ccc(C(F)(F)F)cc1 (stereo partly drawn) [Compound 136]
> 1000	CC(C)[C@H]1c2ncc(C(=O)NCCC3CN(C(=O)OC(C)(C)C)C3)cc2CN1Cc1ccc(C(F)(F)F)cc1 [Compound 66]
> 1000	COC(=O)C(Cc1cc(=O)[nH]c2ccccc12)NC(=O)c1cnc2c(c1)CN(Cc1ccc(C(F)(F)F)cc1)[C@H]2C(C)C (stereo partly drawn) [Compound 135]
> 1000	CC(C)[C@H]1c2ncc(C(=O)NCC3CCN(S(C)(=O)=O)C3)cc2CN1Cc1ccc(C(F)(F)F)cc1 (stereo partly drawn) [Compound 154]
> 1000	CC(C)[C@H]1c2ncc(C(=O)NCCCN3CCCC3=O)cc2CN1Cc1ccc(C(F)(F)F)cc1 [Compound 79]
> 1000	CC(C)[C@H]1c2ncc(C(=O)NCC(O)c3ccc(C(F)(F)F)cc3)cc2CN1Cc1ccc(C(F)(F)F)cc1 (stereo partly drawn) [Compound 70]
> 1000	CC(C)[C@H]1c2ncc(C(=O)NCC(c3ccc(C(F)(F)F)cc3)N3CCOCC3)cc2CN1Cc1ccc(C(F)(F)F)cc1 (stereo partly drawn) [Compound 93]
> 1000	CC(C)[C@H]1c2ncc(C(=O)NCc3ccn(C)n3)cc2CN1Cc1ccc(C(F)(F)F)cc1 [Compound 82]
> 1000	COC(=O)C1(CNC(=O)c2cnc3c(c2)CN(Cc2ccc(C(F)(F)F)cc2)[C@H]3C(C)C)CCOCC1 [Compound 134]
> 1000	CC(C)[C@H]1c2ncc(C(=O)NCC(F)F)cc2CN1Cc1ccc(C(F)(F)F)cc1 [Compound 124]
> 1000	CC(C)[C@H]1c2ncc(C(=O)NCCC3CCS(=O)(=O)CC3)cc2CN1Cc1ccc(C(F)(F)F)cc1 [Compound 62]
100 to 1000	CC(C)[C@H]1c2ncc(C(=O)N[C@H](CO)c3ccc(C#N)cc3)cc2CN1Cc1ccc(C(F)(F)F)cc1 [Compound 158]
> 1000	CC(C)[C@H]1c2ncc(C(=O)NCCC3C(=O)Nc4ccc(Cl)cc43)cc2CN1Cc1ccc(C(F)(F)F)cc1 (stereo partly drawn) [Compound 121]
> 1000	COC(=O)CC1(CNC(=O)c2cnc3c(c2)CN(Cc2ccc(C(F)(F)F)cc2)[C@H]3C(C)C)CCCCC1 [Compound 137]
> 1000	CC(C)[C@H]1c2ncc(C(=O)NCC3(C(=O)O)CCOCC3)cc2CN1Cc1ccc(C(F)(F)F)cc1 [Compound 146]
> 1000	CC(C)[C@H]1c2ncc(C(=O)NCC3CCN(C)CC3)cc2CN1Cc1ccc(C(F)(F)F)cc1 [Compound 100]

SMILES	Ki [nM]
CC(C)[C@H]1c2ncc(C(=O)N[C@H]3c4ccccc4C[C@H]3O)cc2CN1Cc1ccc(C(F)(F)F)cc1 [Compound 125]	> 1000
CC(C)[C@H]1c2ncc(C(=O)N[C@H]3c4ccccc4C[C@H]3O)cc2CN1Cc1ccc(C(F)(F)F)cc1 [Compound 131]	100 to 1000
COC(=O)[C@H]1CC[C@H](CNC(=O)c2cnc3c(c2)CN(Cc2ccc(C(F)(F)F)cc2)[C@H]3C(C)C)CC1 [Compound 75]	> 1000
CC(C)[C@H]1c2ncc(C(=O)N[C@H]3c4ccccc4C[C@H]3O)cc2CN1Cc1ccc(C(F)(F)F)cc1 [Compound 132]	100 to 1000
